Data on five cell lines can be found in the supplement of paper PMC10307832.

What all share (assay): relative viability (nuclei count vs DMSO), 5 days (fraction); higher = more cells survive
Compound in the assay “Bortezomib + Trametinib”: CC(C)C[C@H](NC(=O)[C@H](Cc1ccccc1)NC(=O)c1cnccn1)B(O)O [Bortezomib] + CC(=O)Nc1cccc(-n2c(=O)n(C3CC3)c(=O)c3c(Nc4ccc(I)cc4F)n(C)c(=O)c(C)c32)c1 [Trametinib] (partner 0.02 µM)
In outline: (§1)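 Values are medians from duplicate plates. Each reflects relative viability, defined as the nuclei count of treated wells over that of vehicle wells. Lung cancer cell lines in 1536-well plates were pin-tool dosed one day after seeding with one drug alone or with a fixed anchor-drug dose plus five library-drug doses (not always all listed) in √10 steps, then fixed, stained and imaged at 4× after 5 days.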

Compound in assay [1]: CC1=CC(=NN1)NC2=CC(=NC(=N2)/C=C/C3=CC=CC=C3)N4CCN(CC4)C + Cc1cc(Nc2cc(N3CCN(C)CC3)nc(Sc3ccc(NC(=O)C4CC4)cc3)n2)n[nH]1 [Tozasertib] (partner 0.1 µM)
In outline: as §1

Compound in the assay “Obatoclax + OSI-027”: COC1=CC(c2cc3ccccc3[nH]2)=N/C1=C\c1[nH]c(C)cc1C [Obatoclax] + COc1cccc2cc(-c3nc([C@H]4CC[C@H](C(=O)O)CC4)n4ncnc(N)c34)[nH]c12 [OSI-027] (partner 0.5 µM)
In outline:
as §1

Compound in the assay “Obatoclax + Vorinostat”: COC1=CC(c2cc3ccccc3[nH]2)=N/C1=C\c1[nH]c(C)cc1C [Obatoclax] + O=C(CCCCCCC(=O)Nc1ccccc1)NO [Vorinostat] (partner 1 µM)
In outline: as §1

Consider ChaGo-K-1, for which the relative viability amounted to 0.882 in the assay with Bortezomib + Trametinib (first compound 0.0002 µM); 0.89 with Bortezomib + Trametinib (first compound 0.000632 µM); 0.85 in the assay with Bortezomib + Trametinib (first compound 0.002 µM); 0.279 with Bortezomib + Trametinib (first compound 0.006325 µM); 0.144 with Bortezomib + Trametinib (first compound 0.02 µM); 0.222 in assay [1] (first compound 0.08 µM). The relative viability in assay [1] (first compound 0.253 µM) is 0.227; in assay [1] (first compound 0.8 µM), 0.217; in assay [1] (first compound 2.53 µM), 0.195; in assay [1] (first compound 8 µM) it was 0.172; in the assay with Obatoclax + OSI-027 (first compound 0.01 µM) it was 0.694; in the assay with Obatoclax + OSI-027 (first compound 0.03162 µM), 0.549. In addition, the relative viability with Obatoclax + OSI-027 (first compound 0.1 µM) was 0.522; in the assay with Obatoclax + OSI-027 (first compound 0.3162 µM) it was 0.512; with Obatoclax + OSI-027 (first compound 1 µM) it was 0.63; in the assay with Obatoclax + Vorinostat (first compound 0.01 µM), 0.756; in the assay with Obatoclax + Vorinostat (first compound 0.03162 µM) it was 0.587; with Obatoclax + Vorinostat (first compound 0.1 µM), 0.637. For the same cell line, the relative viability with Obatoclax + Vorinostat (first compound 0.3162 µM) is 0.742; in the assay with Obatoclax + Vorinostat (first compound 1 µM), 0.795.
With NCI-H23, the relative viability with Bortezomib + Trametinib (first compound 0.0002 µM) was determined as 0.343; with Bortezomib + Trametinib (first compound 0.002 µM), 0.286; with Bortezomib + Trametinib (first compound 0.006325 µM) it was 0.193; in the assay with Bortezomib + Trametinib (first compound 0.02 µM), 0.114; in assay [1] (first compound 0.08 µM), 0.389; in assay [1] (first compound 0.253 µM), 0.382. Further, the relative viability turned out to be 0.239 in assay [1] (first compound 0.8 µM); 0.212 in assay [1] (first compound 2.53 µM); 0.141 in assay [1] (first compound 8 µM); 0.632 with Obatoclax + OSI-027 (first compound 0.01 µM); 0.62 with Obatoclax + OSI-027 (first compound 0.03162 µM); 0.626 in the assay with Obatoclax + OSI-027 (first compound 0.1 µM). Besides, the relative viability turned out to be 0.503 with Obatoclax + OSI-027 (first compound 0.3162 µM); 0.243 with Obatoclax + OSI-027 (first compound 1 µM); 0.593 with Obatoclax + Vorinostat (first compound 0.01 µM); 0.755 with Obatoclax + Vorinostat (first compound 0.03162 µM); 0.569 with Obatoclax + Vorinostat (first compound 0.1 µM); 0.653 in the assay with Obatoclax + Vorinostat (first compound 0.3162 µM). For the same cell line, the relative viability with Obatoclax + Vorinostat (first compound 1 µM) worked out at 0.316.
Take UMC-11: the relative viability turned out to be 0.731 with Bortezomib + Trametinib (first compound 0.0002 µM); 0.845 with Bortezomib + Trametinib (first compound 0.000632 µM); 0.574 with Bortezomib + Trametinib (first compound 0.002 µM); 0.296 with Bortezomib + Trametinib (first compound 0.006325 µM); 0.132 with Bortezomib + Trametinib (first compound 0.02 µM); 0.191 in assay [1] (first compound 0.08 µM). The relative viability in assay [1] (first compound 0.253 µM) came out at 0.212; in assay [1] (first compound 0.8 µM), 0.206; in assay [1] (first compound 2.53 µM) it was 0.183; in assay [1] (first compound 8 µM) it was 0.162; with Obatoclax + OSI-027 (first compound 0.01 µM), 0.465; with Obatoclax + OSI-027 (first compound 0.03162 µM) it was 0.504. The relative viability is 0.48 with Obatoclax + OSI-027 (first compound 0.1 µM); 0.379 with Obatoclax + OSI-027 (first compound 0.3162 µM); 0.285 with Obatoclax + OSI-027 (first compound 1 µM); 0.39 with Obatoclax + Vorinostat (first compound 0.01 µM); 0.439 in the assay with Obatoclax + Vorinostat (first compound 0.03162 µM); 0.375 with Obatoclax + Vorinostat (first compound 0.1 µM). Further, the relative viability came out at 0.407 with Obatoclax + Vorinostat (first compound 0.3162 µM) and 0.288 in the assay with Obatoclax + Vorinostat (first compound 1 µM).
For the cell line NCI-H1975, the relative viability came out at 0.501 in the assay with Bortezomib + Trametinib (first compound 0.0002 µM); 0.312 in the assay with Bortezomib + Trametinib (first compound 0.000632 µM); 0.152 with Bortezomib + Trametinib (first compound 0.002 µM); 0.11 in the assay with Bortezomib + Trametinib (first compound 0.006325 µM); 0.0939 in the assay with Bortezomib + Trametinib (first compound 0.02 µM); 0.62 in assay [1] (first compound 0.08 µM). Further, the relative viability in assay [1] (first compound 0.253 µM) was 0.729; in assay [1] (first compound 0.8 µM), 0.416; in assay [1] (first compound 2.53 µM) it was 0.127; in assay [1] (first compound 8 µM), 0.0865; in the assay with Obatoclax + OSI-027 (first compound 0.01 µM) it was 0.801; with Obatoclax + OSI-027 (first compound 0.03162 µM), 0.665. The relative viability with Obatoclax + OSI-027 (first compound 0.3162 µM) was 0.511; with Obatoclax + OSI-027 (first compound 1 µM), 0.177; with Obatoclax + Vorinostat (first compound 0.01 µM), 0.674; in the assay with Obatoclax + Vorinostat (first compound 0.03162 µM) it was 0.775; with Obatoclax + Vorinostat (first compound 0.1 µM) it was 0.73; in the assay with Obatoclax + Vorinostat (first compound 0.3162 µM), 0.735. The relative viability with Obatoclax + Vorinostat (first compound 1 µM) amounted to 0.788.
COR-L 105: the relative viability was 0.449 in the assay with Bortezomib + Trametinib (first compound 0.0002 µM); 0.42 with Bortezomib + Trametinib (first compound 0.000632 µM); 0.414 with Bortezomib + Trametinib (first compound 0.002 µM); 0.375 in the assay with Bortezomib + Trametinib (first compound 0.006325 µM); 0.376 in the assay with Bortezomib + Trametinib (first compound 0.02 µM); 0.372 in assay [1] (first compound 0.08 µM). Also, the relative viability in assay [1] (first compound 0.253 µM) was determined as 0.304; in assay [1] (first compound 0.8 µM) it was 0.348; in assay [1] (first compound 2.53 µM), 0.248; in assay [1] (first compound 8 µM), 0.246; with Obatoclax + OSI-027 (first compound 0.01 µM) it was 0.741; in the assay with Obatoclax + OSI-027 (first compound 0.03162 µM) it was 0.906. For the same cell line, the relative viability in the assay with Obatoclax + OSI-027 (first compound 0.1 µM) turned out to be 0.803; with Obatoclax + OSI-027 (first compound 0.3162 µM), 0.518; in the assay with Obatoclax + OSI-027 (first compound 1 µM), 0.301; with Obatoclax + Vorinostat (first compound 0.01 µM) it was 0.837; with Obatoclax + Vorinostat (first compound 0.03162 µM), 0.905; with Obatoclax + Vorinostat (first compound 0.1 µM) it was 0.885. The values for the relative viability with Obatoclax + Vorinostat (first compound 0.3162 µM) and with Obatoclax + Vorinostat (first compound 1 µM) were 0.725 and 0.445, respectively.
